Assays:
MDAMB231 = assay: Alamar Blue cell proliferation assay, MDAMB231; assay type: cell-based; settings: Homo sapiens, MDA-MB-231, MDAMB231, Table 1, read-out: AB: MDAMB231 IC50
Experimental: (§1) A representative cell-proliferation assay protocol using Alamar Blue dye (stored at 4° C., use 20 ul per well) is described hereafter.
(§2) a. Split and trypsinize cells.
(§3) b. Count cells using hemocytometer.
(§4) c. Plate 4,000-5,000 cells per well in 100 μl of medium and seed into a 96-well plate according to the following plate layout. Add cell culture medium only to wells B10 to B12. Wells B1 to B9 have cells but no compound added.
(§5) d. Add 100 μl of 2× drug dilution to each well in a concentration shown in the plate layout above. At the same time, add 100 μl of media into the control wells (wells B10 to B12). Total volume is 200 μl/well.
(§6) e. Incubate four (4) days at 37° C., 5% CO2 in a humidified incubator.
(§7) f. Add 20 μl Alamar Blue reagent to each well.
(§8) g. Incubate for four (4) hours at 37° C., 5% CO2 in a humidified incubator.
(§9) h. Record fluorescence at an excitation wavelength of 544 nm and emission wavelength of 590 nm using a microplate reader.
(§10) In the assays, cells are cultured with a test compound for approximately four days, the dye is then added to the cells and fluorescence of […] dye is detected after approximately four hours. Different types of cells can be utilized in the assays (e.g., HCT-116 human colorectal carcinoma cells, PC-3 human prostatic cancer cells and MiaPaca human pancreatic carcinoma cells).

[1] = test system: MiaPaca human pancreatic carcinoma cells; assay: Alamar Blue cell proliferation assay, MiaPaCa; assay type: cell-based; settings: MIA PaCa-2, Table 1, read-out: AB: MiaPaCa IC50
Experimental: as §1, §2, §3, §4, §5, §6, §7, §8, §9, §10

recombinant PIM-1 = recombinant PIM-1 (Homo sapiens, UniProt P11309); assay: PIM-1 assay (33P-ATP filter plate); assay type: biochemical; settings: Table 1; read-out: PIM1: IC50
Chain of recombinant PIM-1 (P11309 whole entry): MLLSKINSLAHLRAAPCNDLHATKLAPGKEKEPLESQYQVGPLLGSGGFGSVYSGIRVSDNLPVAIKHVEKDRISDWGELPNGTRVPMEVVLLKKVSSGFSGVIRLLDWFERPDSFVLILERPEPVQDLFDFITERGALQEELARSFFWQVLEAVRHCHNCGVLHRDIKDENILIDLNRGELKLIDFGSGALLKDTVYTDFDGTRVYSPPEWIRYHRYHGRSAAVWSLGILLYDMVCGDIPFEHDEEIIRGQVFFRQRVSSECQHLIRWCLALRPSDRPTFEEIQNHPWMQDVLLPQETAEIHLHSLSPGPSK
Experimental: The following procedure was used to assay the PIM-1 kinase activity of compounds of the invention. Other methods for assaying PIM-1 and other PIM kinases, as well as methods to assay for activity against the various kinases are known in the art.
In a final reaction volume of 50 ul, recombinant PIM-1 (1 ng) was incubated with 12 mM MOPS pH 7.0, 0.4 mM EDTA, glycerol 1%, brij 35 0.002%, 2-mercaptoethanol 0.02%, BSA 0.2 mg/ml, 100 uM KKRNRTLTK, 10 mM MgAcetate, 15 uM ATP, [γ-^33P-ATP] (specific activity approx. 500 cpm/pmol), DMSO 4% and test inhibitor compound at the required concentration. The reaction was initiated by the addition of the Magnesium ATP mixture. After 40 min incubation at 23° C., the reactions were quenched by the addition of 100 ul 0.75% Phosphoric acid, and the labeled peptide collected by filtration through a phosphocellulose filter plate. The plate was washed 4 times with 0.075% phosphoric acid (100 ul per well) and then, after the addition of scintillation fluid (20 ul per well), the counts were measured by a scintillation counter.

K-562 = assay: Alamar Blue cell proliferation assay, K-562; assay type: cell-based; settings: Homo sapiens, K562, K-562, Table 1, read-out: AB: K-562 IC50
Experimental: as §1, §2, §3, §4, §5, §6, §7, §8, §9, §10

[2] = test system: PC-3 human prostatic cancer cells; assay: Alamar Blue cell proliferation assay, PC3; assay type: cell-based; settings: PC-3, PC3, Table 1, read-out: AB: PC3
Experimental: as §1, §2, §3, §4, §5, §6, §7, §8, §9, §10

recombinant human CK2 = target: T1, recombinant human CK2 (Homo sapiens, UniProt P68400); assay: CK2 assay (cell-free, 33P-ATP filter plate); assay type: biochemical; settings: Table 1
T1 construct: purchased Upstate
T1 sequence (P68400 whole entry): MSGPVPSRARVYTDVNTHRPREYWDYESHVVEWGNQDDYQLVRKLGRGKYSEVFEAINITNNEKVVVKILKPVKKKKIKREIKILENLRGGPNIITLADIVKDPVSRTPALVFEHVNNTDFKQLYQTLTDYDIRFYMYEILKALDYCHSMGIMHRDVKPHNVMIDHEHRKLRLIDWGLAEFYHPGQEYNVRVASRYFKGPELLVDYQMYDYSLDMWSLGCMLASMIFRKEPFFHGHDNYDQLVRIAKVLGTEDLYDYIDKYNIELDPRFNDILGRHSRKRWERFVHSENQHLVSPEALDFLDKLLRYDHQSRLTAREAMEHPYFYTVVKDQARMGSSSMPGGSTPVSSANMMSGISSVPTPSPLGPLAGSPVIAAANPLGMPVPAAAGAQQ
T1 sequence (P67870 whole entry partner): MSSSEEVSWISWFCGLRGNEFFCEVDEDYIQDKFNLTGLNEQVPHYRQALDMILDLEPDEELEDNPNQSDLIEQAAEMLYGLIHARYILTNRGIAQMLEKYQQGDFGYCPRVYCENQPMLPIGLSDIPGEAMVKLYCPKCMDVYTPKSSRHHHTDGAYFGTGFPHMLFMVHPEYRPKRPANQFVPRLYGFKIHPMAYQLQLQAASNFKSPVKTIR
Experimental: Modulatory activity of compounds described herein was assessed in vitro in cell-free CK2 assays by the following method.
Test compounds in aqueous solution were added at a volume of 10 microliters, to a reaction mixture comprising 10 microliters Assay Dilution Buffer (ADB; 20 mM MOPS, pH 7.2, 25 mM beta-glycerolphosphate, 5 mM EGTA, 1 mM sodium orthovanadate and 1 mM dithiothreitol), 10 microliters of substrate peptide (RRRDDDSDDD, dissolved in ADB at a concentration of 1 mM), 10 microliters of recombinant human CK2 (25 ng dissolved in ADB; Upstate). Reactions were initiated by the addition of 10 microliters of ATP Solution (90% 75 mM MgCl2, 75 micromolar ATP dissolved in ADB; 10% [γ-^33P]ATP (stock 1 mCi/100 μl; 3000 Ci/mmol (Perkin Elmer) and maintained for 10 minutes at 30 degrees C. The reactions were quenched with 100 microliters of 0.75% phosphoric acid, then transferred to and filtered through a phosphocellulose filter plate (Millipore). After washing each well 5 times with 0.75% phosphoric acid, the plate was dried under vacuum for 5 min and, following the addition of 15 ul of scintillation fluid to each well, the residual radioactivity was measured using a Wallac luminescence counter.

MV-4-11 = assay: Alamar Blue cell proliferation assay, MV-4-11; assay type: cell-based; settings: Homo sapiens, MV4-11, MV-4-11, Table 1, read-out: AB: MV-4-11 IC50
Experimental: as §1, §2, §3, §4, §5, §6, §7, §8, §9, §10

## O=C1NC(=S)S/C1=C\c1ccc(-c2cccc(C(=O)NN3CCN(CCO)CC3)c2)o1
MDAMB231
  IC50: > 10 µM
[1]
  IC50: > 10 µM
Recombinant PIM-1
  IC50: 0.162 µM
K-562
  IC50: > 10 µM
[2]
  IC50: > 30 µM
Recombinant human CK2
  IC50: 0.288 µM
MV-4-11
  IC50: > 10 µM

## CC(=O)NC1CCN(C(=O)c2cccc(-c3ccc(/C=C4\SC(=S)NC4=O)o3)c2)C1 (stereo not shown)
MDAMB231
  IC50: > 10 µM
[1]
  IC50: > 10 µM
Recombinant PIM-1
  IC50: 0.038 µM
K-562
  IC50: > 10 µM
[2]
  IC50: > 30 µM
Recombinant human CK2
  IC50: 0.444 µM
MV-4-11
  IC50: > 10 µM

## CC(C)N1CCN(C(=O)c2ccc(-c3ccc(/C=C4\SC(=S)NC4=O)o3)cc2)CC1
MDAMB231
  IC50: > 10 µM
[1]
  IC50: > 10 µM
Recombinant PIM-1
  IC50: 0.067 µM
K-562
  IC50: > 10 µM
[2]
  IC50: > 30 µM
MV-4-11
  IC50: > 10 µM

## CN1CCCN(C(=O)c2ccc(-c3ccc(/C=C4\SC(=S)NC4=O)o3)cc2)CC1
MDAMB231
  IC50: > 10 µM
[1]
  IC50: > 10 µM
Recombinant PIM-1
  IC50: 0.025 µM
K-562
  IC50: > 10 µM
[2]
  IC50: > 30 µM
MV-4-11
  IC50: > 10 µM

## CN1CCN(C(=O)c2ccc(-c3ccc(/C=C4\SC(=S)NC4=O)o3)cc2)CC1
MDAMB231
  IC50: > 10 µM
[1]
  IC50: > 10 µM
Recombinant PIM-1
  IC50: 0.064 µM
K-562
  IC50: > 10 µM
[2]
  IC50: > 30 µM
MV-4-11
  IC50: > 10 µM

## O=C1NC(=S)S/C1=C\c1ccc(-c2cccc(C(=O)N3CCCNCC3)c2)o1
MDAMB231
  IC50: > 10 µM
[1]
  IC50: > 10 µM
Recombinant PIM-1
  IC50: 0.009 µM
K-562
  IC50: > 10 µM
[2]
  IC50: > 30 µM
Recombinant human CK2
  IC50: 0.412 µM
MV-4-11
  IC50: > 10 µM

## CCN1CCCC1CNC(=O)c1ccc(-c2ccc(/C=C3\SC(=S)NC3=O)o2)cc1 (stereo not shown)
MDAMB231
  IC50: > 10 µM
[1]
  IC50: 3.95 µM
Recombinant PIM-1
  IC50: 0.028 µM
K-562
  IC50: > 10 µM
[2]
  IC50: > 30 µM
MV-4-11
  IC50: 0.21 µM

## O=C1NC(=S)S/C1=C\c1ccc(-c2cccc(C(=O)N3CCC[C@H]3CO)c2)o1
MDAMB231
  IC50: > 10 µM
[1]
  IC50: > 10 µM
Recombinant PIM-1
  IC50: 0.012 µM
K-562
  IC50: > 10 µM
[2]
  IC50: > 30 µM
Recombinant human CK2
  IC50: 0.037 µM
MV-4-11
  IC50: 0.175 µM

## CN1CCCCC1CNC(=O)c1ccc(-c2ccc(/C=C3\SC(=S)NC3=O)o2)cc1 (stereo not shown)
MDAMB231
  IC50: > 10 µM
[1]
  IC50: > 10 µM
Recombinant PIM-1
  IC50: 0.037 µM
K-562
  IC50: > 10 µM
[2]
  IC50: > 30 µM
Recombinant human CK2
  IC50: 0.471 µM
MV-4-11
  IC50: > 10 µM

## CCN(CC)CCNC(=O)c1cc(-c2ccc(/C=C3\SC(=S)NC3=O)o2)ccc1Cl
MDAMB231
  IC50: > 10 µM
[1]
  IC50: > 10 µM
Recombinant PIM-1
  IC50: 0.002 µM
K-562
  IC50: > 10 µM
[2]
  IC50: > 10 µM
Recombinant human CK2
  IC50: 0.01 µM

## CN(C)NC(=O)c1cccc(-c2ccc(/C=C3\SC(=S)NC3=O)o2)c1
MDAMB231
  IC50: > 10 µM
[1]
  IC50: > 10 µM
Recombinant PIM-1
  IC50: 0.036 µM
K-562
  IC50: > 10 µM
[2]
  IC50: > 30 µM
Recombinant human CK2
  IC50: 0.094 µM
MV-4-11
  IC50: > 10 µM

## CCN(CC)CCNC(=O)c1ccc(-c2ccc(/C=C3\SC(=S)NC3=O)o2)cc1
MDAMB231
  IC50: > 10 µM
[1]
  IC50: > 10 µM
Recombinant PIM-1
  IC50: 0.006 µM
K-562
  IC50: > 10 µM
[2]
  IC50: > 30 µM
Recombinant human CK2
  IC50: 0.131 µM
MV-4-11
  IC50: > 10 µM

## O=C1NC(=S)S/C1=C\c1ccc(-c2cccc(C(=O)NN3CCCCC3)c2)o1
MDAMB231
  IC50: > 10 µM
[1]
  IC50: > 10 µM
Recombinant PIM-1
  IC50: 0.086 µM
K-562
  IC50: > 10 µM
[2]
  IC50: > 30 µM
Recombinant human CK2
  IC50: 0.551 µM
MV-4-11
  IC50: > 10 µM

## COCCNC(=O)c1cccc(-c2ccc(/C=C3\SC(=S)NC3=O)o2)c1
MDAMB231
  IC50: > 10 µM
[1]
  IC50: > 10 µM
Recombinant PIM-1
  IC50: 0.031 µM
K-562
  IC50: > 10 µM
[2]
  IC50: > 30 µM
Recombinant human CK2
  IC50: 0.123 µM
MV-4-11
  IC50: > 10 µM

## COCCNC(=O)c1cc(-c2ccc(/C=C3\SC(=S)NC3=O)o2)ccc1Cl
MDAMB231
  IC50: > 10 µM
[1]
  IC50: > 10 µM
Recombinant PIM-1
  IC50: 0.042 µM
K-562
  IC50: > 10 µM
[2]
  IC50: > 10 µM
Recombinant human CK2
  IC50: 0.054 µM

## O=C1NC(=S)S/C1=C\c1ccc(-c2cccc(C(=O)N3CC[C@H](F)C3)c2)o1
MDAMB231
  IC50: > 10 µM
[1]
  IC50: > 10 µM
Recombinant PIM-1
  IC50: 0.013 µM
K-562
  IC50: > 10 µM
[2]
  IC50: > 30 µM
Recombinant human CK2
  IC50: 0.012 µM
MV-4-11
  IC50: 9.5 µM

## CN1CCC(N(C)C(=O)c2ccc(-c3ccc(/C=C4\SC(=S)NC4=O)o3)cc2)C1 (stereo not shown)
MDAMB231
  IC50: > 10 µM
[1]
  IC50: > 10 µM
Recombinant PIM-1
  IC50: 0.037 µM
K-562
  IC50: > 10 µM
[2]
  IC50: > 30 µM
MV-4-11
  IC50: > 10 µM

## O=C1NC(=S)S/C1=C\c1ccc(-c2ccc(C(=O)NCc3ccccn3)cc2)o1
MDAMB231
  IC50: > 10 µM
[1]
  IC50: > 10 µM
Recombinant PIM-1
  IC50: 0.286 µM
K-562
  IC50: > 10 µM
[2]
  IC50: > 30 µM
Recombinant human CK2
  IC50: 0.04 µM
MV-4-11
  IC50: 8.83 µM

## O=C1NC(=S)S/C1=C\c1ccc(-c2cccc(C(=O)N3CC[C@@H](F)C3)c2)o1
MDAMB231
  IC50: > 10 µM
[1]
  IC50: > 10 µM
Recombinant PIM-1
  IC50: 0.04 µM
K-562
  IC50: > 10 µM
[2]
  IC50: > 30 µM
Recombinant human CK2
  IC50: 0.026 µM
MV-4-11
  IC50: > 10 µM

## CCNC(=O)c1cccc(-c2ccc(/C=C3\SC(=S)NC3=O)o2)c1
MDAMB231
  IC50: > 10 µM
[1]
  IC50: > 10 µM
Recombinant PIM-1
  IC50: 0.028 µM
K-562
  IC50: > 10 µM
[2]
  IC50: > 30 µM
Recombinant human CK2
  IC50: 0.264 µM
MV-4-11
  IC50: > 10 µM

## O=C1NC(=S)S/C1=C\c1ccc(-c2cccc(C(=O)Nn3cnnc3)c2)o1
MDAMB231
  IC50: > 10 µM
[1]
  IC50: > 10 µM
Recombinant PIM-1
  IC50: 0.047 µM
K-562
  IC50: > 10 µM
[2]
  IC50: > 30 µM
Recombinant human CK2
  IC50: 0.281 µM
